For orientation: inhibition in vivo means the percentage by which the read-out fell short of the control. Low readings indicate little suppression, high ones strong suppression.

For the first test, the system named is cholesterol absorption (serum 3H-cholesterol). Description: In Vivo Assay of Hypolipidemic Agents using the Rat Cholesterol Absorption Model. Also noted: species or system Sprague-Dawley rats. The note with it: peroral, 5 mg/kg (footnote 3), serum 3H-cholesterol vs vehicle control. As to the method:
In Vivo Assay of Hypolipidemic Agents using the Rat Cholesterol Absorption Model. This model is based on models described by Burnett et al (2002), Bioorg. Med. Chem. Lett. 2002 Feb. 11;12(3):315-8 and J. Lipid Res. 1999 October;40(10):1747-57. Female Sprague-Dawley rats weighing 150-250 g are separated into groups of […] and fasted overnight. The animals (4-6/group) are dosed perorally with 300 μL test compounds in olive oil or suitable vehicle. Thirty minutes later, 3-5 microCuries ^3H-cholesterol per rat are delivered perorally in 300 μL olive oil. After three hours, 200 μL serum is collected, vortexed with scintillation fluid, and measured for radioactivity in a scintillation counter. Percent inhibition is defined as 100*(1−Ctest/Cctrl), where Ctest and Cctl refer to ^3H levels in serum for the test compound and for the vehicle only control, respectively. Percent inhibition values are reported for a fixed dose. The ED50 is the dose at which the half-maximal effect on serum ^3H levels is observed for a given test compound.
Representative compounds of the invention were tested in the Rat Cholesterol Absorption model above.
For `N#Cc1cccc(-c2ccc([C@@H]3[C@@H](CC[C@H](O)c4ccc(F)cc4)C(=O)N3c3ccc(F)cc3)cc2)c1` [Example 14, 4′-{(2S,3R)-1-(4-fluorophenyl)-3-[(3S)-3-(4-fluorophenyl)-3-hydroxypropyl]-4-oxoazetidin-2-yl}biphenyl-3-carbonitrile], the “% inhibition at 5 mg/kg” value is 32^3%.
Still for that read-out and setting: next, `O=C1[C@H](CC[C@H](O)c2ccc(F)cc2)[C@@H](c2ccc(-c3cccc(P(=O)(O)O)c3)cc2O)N1c1ccccc1` [Example 61, (4′-{(2S,3R)-3-[(3S)-3-(4-Fluorophenyl)-3-hydroxypropyl]-4-oxo-1-phenylazetidin-2-yl}-3′-hydroxybiphenyl-3-yl)phosphonic Acid]: 58^3%.

The test is the same for the next values; noted with them: peroral, 10 mg/kg (footnote 1), serum 3H-cholesterol vs vehicle control.
For the compound `O=C1[C@H](CC[C@H](O)c2ccc(F)cc2)[C@@H](c2ccc(-c3ccccc3)cc2)N1c1ccc(F)cc1` [Example 3, (3R,4S)-4-Biphenyl-4-yl-1-(4-fluorophenyl)-3-[(3S)-3-(4-fluorophenyl)-3-hydroxypropyl]azetidin-2-one], the “% inhibition at 10 mg/kg” value is recorded as 15^1%.
For the compound `O=C1[C@H](CC[C@H](O)c2ccc(F)cc2)[C@@H](c2ccc(-c3cccc([N+](=O)[O-])c3)cc2)N1c1ccc(F)cc1` [Example 23, (3R,4S)-1-(4-fluorophenyl)-3-[(3S)-3-(4-fluorophenyl)-3-hydroxypropyl]-4-(3′-nitrobiphenyl-4-yl)azetidin-2-one], the “% inhibition at 10 mg/kg” value was 54^1%.
Take `CC(=O)Nc1cccc(-c2ccc([C@@H]3[C@@H](CC[C@H](O)c4ccc(F)cc4)C(=O)N3c3ccc(F)cc3)cc2)c1` [Example 26, N-(4′-{(2S,3R)-1-(4-fluorophenyl)-3-[(3S)-3-(4-fluorophenyl)-3-hydroxypropyl]-4-oxoazetidin-2-yl}biphenyl-3-yl)acetamide]: the “% inhibition at 10 mg/kg” value is 76^1%.

The same test, now with this note: po, peroral, 1 mg/kg, serum 3H-cholesterol 3 h after cholesterol dose, vs vehicle control.
As for `COc1cccc(-c2ccc([C@@H]3[C@@H](CC[C@H](O)c4ccc(F)cc4)C(=O)N3c3ccc(F)cc3)cc2)c1` [Example 12, (3R,4S)-1-(4-fluorophenyl)-3-[(3S)-3-(4-fluorophenyl)-3-hydroxypropyl]-4-(3′-methoxybiphenyl-4-yl)azetidin-2-one], the inhibition in vivo at 1 mg/kg amounted to 70%.
On the same count and under the same terms, next, `O=Cc1cccc(-c2ccc([C@@H]3[C@@H](CC[C@H](O)c4ccc(F)cc4)C(=O)N3c3ccc(F)cc3)cc2)c1` [Example 13, 4′-{(2S,3R)-1-(4-fluorophenyl)-3-[(3S)-3-(4-fluorophenyl)-3-hydroxypropyl]-4-oxoazetidin-2-yl}biphenyl-3-carbaldehyde]: 70%; `CN(C)S(=O)(=O)c1ccc(-c2ccc([C@@H]3[C@@H](CC[C@H](O)c4ccc(F)cc4)C(=O)N3c3ccc(F)cc3)cc2)cc1` [Example 15, 4′-{(2S,3R)-1-(4-fluorophenyl)-3-[(3S)-3-(4-fluorophenyl)-3-hydroxypropyl]-4-oxoazetidin-2-yl}biphenyl-N,N-dimethylbiphenyl-4-sulfonamide]: 8%; `O=C1[C@H](CC[C@H](O)c2ccc(F)cc2)[C@@H](c2ccc(-c3cccc(CO)c3)cc2)N1c1ccc(F)cc1` [Example 16, (3R,4S)-1-(4-Fluorophenyl)-3-[(3S)-3-(4-fluorophenyl)-3-hydroxypropyl]-4-(3′-(hydroxymethyl)biphenyl-4-yl)azetidin-2-one]: 72%.
Still for that read-out and setting: the value for `CN(C)c1ccc(-c2ccc([C@@H]3[C@@H](CC[C@H](O)c4ccc(F)cc4)C(=O)N3c3ccc(F)cc3)cc2)cc1` [Example 17, (3R,4S)-4-[4′(dimethylamino)biphenyl-4-yl]-1-(4-fluorophenyl)-3-[(3S)-3-(4-fluorophenyl)-3-hydroxypropyl]azetidin-2-one] was 43%; that for `O=C1[C@H](CC[C@H](O)c2ccc(F)cc2)[C@@H](c2ccc(-c3ccc(CO)cc3)cc2)N1c1ccc(F)cc1` [Example 18] was 48%.
`O=C1[C@H](CC[C@H](O)c2ccc(F)cc2)[C@@H](c2ccc(-c3cc(O)ccc3Br)cc2)N1c1ccc(F)cc1` [Example 19, (3R,4S)-4-(2′-bromo-5′-hydroxybiphenyl-4-yl)-1-(4-fluorophenyl)-3-[(3S)-3-(4-fluorophenyl)-3-hydroxypropyl]azetidin-2-one]: at 1 mg/kg the inhibition in vivo was 66%.
On the same count and under the same terms, next, `O=C(O)[C@@H]1O[C@H](Oc2cccc(-c3ccc([C@@H]4[C@@H](CC[C@H](O)c5ccc(F)cc5)C(=O)N4c4ccc(F)cc4)cc3)c2)[C@@H](O)[C@H](O)[C@H]1O` [Example 20, 4′-{(2S,3R)-1-(4-fluorophenyl)-3-[(3S)-3-(4-fluorophenyl)-3-hydroxypropyl]-4-oxoazetidin-2-yl}biphenyl-3-yl β-L-glucopyranosiduronic Acid]: 59%; `O=C(O)c1cccc(-c2ccc([C@@H]3[C@@H](CC[C@H](O)c4ccc(F)cc4)C(=O)N3c3ccc(F)cc3)cc2)c1` [Example 21, 4′-{(2S,3R)-1-(4-fluorophenyl)-3-[(3S)-3-(4-fluorophenyl)-3-hydroxypropyl]-4-oxoazetidin-2-yl]biphenyl-3-carboxylic acid]: 68%.
On the same count and under the same terms, the value for `O=C(O)c1ccc(-c2ccc([C@@H]3[C@@H](CC[C@H](O)c4ccc(F)cc4)C(=O)N3c3ccc(F)cc3)cc2)cc1` [Example 22, 4′-{(2S,3R)-1-(4-fluorophenyl)3-[(3S)-3-(4-fluorophenyl)-3-hydroxypropyl]-4-oxoazetidin-2-yl]biphenyl-4-carboxylic acid] was 52%.
For `Nc1ccc(-c2ccc([C@@H]3[C@@H](CC[C@H](O)c4ccc(F)cc4)C(=O)N3c3ccc(F)cc3)cc2)cc1` [Example 28, (3R,4S)-4-(4′-aminobiphenyl-4-yl)-1-(4-fluorophenyl)-3-[(3S)-3-(4-fluorophenyl)-3-hydroxypropyl]azetidin-2-one], the inhibition in vivo at 1 mg/kg amounted to 56%.
Same read-out and setting: next, `O=C1[C@H](CC[C@H](O)c2ccc(F)cc2)[C@@H](c2ccc(-c3cccc(O)c3)cc2O)N1c1ccccc1` [Example 42, (3R,4S)-4-(3,3′-Dihydroxybiphenyl-4-yl)-3-[(3S)-3-(4-fluorophenyl)-3-hydroxypropyl]-1-phenylazetidin-2-one]: 87%.
Still for that read-out and setting: the value for `O=C1[C@H](CC[C@H](O)c2ccc(F)cc2)[C@@H](c2cccc(-c3cccc(O)c3)c2)N1c1ccc(F)cc1` [Example 44, (3R,4S)-1-(4-fluorophenyl)-3-[(3S)-3-(4-fluorophenyl)-3-hydroxypropyl]-4-(3′-hydroxybiphenyl-3-yl)azetidin-2-one] was 24%; that for `O=C1[C@H](CC[C@H](O)c2ccc(F)cc2)[C@@H](c2ccc(Br)cc2)N1c1ccccc1` [Example 46, (3R,4S)-4-(4-Bromophenyl)-3-[(3S)-3-(4-fluorophenyl)-3-hydroxypropyl]-1-phenylazetidin-2-one] was 30%.
Compound `O=C1[C@H](CC[C@H](O)c2ccc(F)cc2)[C@@H](c2ccc(-c3cccc(O)c3)cn2)N1c1ccccc1` [Example 49, (3R,4S)-3-[(3S)-3-(4-Fluorophenyl)-3-hydroxypropyl]-4-[5-(3-hydroxyphenyl)pyridin-2-yl]-1-phenylazetidin-2-one] returned an inhibition in vivo at 1 mg/kg of 30%.
On the same count and under the same terms, next, `O=C1[C@H](CC[C@H](O)c2ccc(F)cc2)[C@@H](c2ccc(-c3cccc(O)c3)s2)N1c1ccccc1` [Example 50, (3R,4S)-3-[(3S)-3-(4-Fluorophenyl)-3-hydroxypropyl]-4-[5-(3-hydroxyphenyl)-2-thienyl]-1-phenylazetidin-2-one]: 27%; `O=C1[C@H](CC[C@H](O)c2ccc(F)cc2)[C@@H](c2ccc(-c3ccc(O)cc3)s2)N1c1ccccc1` [Example 51, (3R,4S)-3-[(3S)-3-(4-Fluorophenyl)-3-hydroxypropyl]-4-[5-(4-hydroxyphenyl)-2-thienyl]-1-phenylazetidin-2-one]: 39%; `O=C1[C@H](CCC(O)c2ccc(F)cc2)[C@@H](c2ccc(-c3cccc(S(=O)(=O)O)c3)cc2O)N1c1ccccc1` (stereo partly drawn) [Example 53, Sodium 4′-{(2S,3R)-3-[(3S/R)-3-(4-fluorophenyl)-3-hydroxypropyl]-4-oxo-1-phenylazetidin-2-yl}-3′-hydroxybiphenyl-3-sulfonate]: 78%.
Same read-out and setting: next, `O=C1[C@H](CC[C@H](O)c2ccc(F)cc2)[C@@H](c2ccc(-c3cccc(P(=O)(O)O)c3)cc2)N1c1ccccc1` [Example 56, (4′-{(2S,3R)-3-[(3S)-3-(4-Fluorophenyl)-3-hydroxypropyl]-4-oxo-1-phenylazetidin-2-yl}biphenyl-3-yl)phosphonic acid]: 59%; `O=C1[C@H](CC[C@H](O)c2ccc(F)cc2)[C@@H](c2ccc(-c3cccc(O)c3)cc2)N1c1ccccc1` [Example 57, (3R,4S)-3-[(3S)-3-(4-Fluorophenyl)-3-hydroxypropyl]-4-(3′-hydroxybiphenyl-4-yl)-1-phenylazetidin-2-one]: 73%; `O=C1[C@H](CC[C@H](O)c2ccc(F)cc2)[C@@H](c2ccc(-c3cccc(B(O)O)c3)cc2)N1c1ccccc1` [Example 59, (4′-{(2S,3R)-3-[(3S)-3-(4-Fluorophenyl)-3-hydroxypropyl]-4-oxo-1-phenylazetidin-2-yl}biphenyl-3-yl)boronic acid]: 70%.

The values are drawn from patent publication US7320972B2, “4-Biarylyl-1-phenylazetidin-2-ones” (Microbia, Inc., priority 2003, dated 2008).
